The values that follow come from patent US7094869B2, “Low molecular weight peptidomimetic growth hormone secretagogues” (Genentech, Inc., priority 1994, dated 2006).

Entries after “also recorded” stand apart in the source; their conditions may differ. Where two headings read alike, the source gives them in different places. Non-standard residues stand in square brackets, D forms with d. Residues, ends and D or L forms follow the SMILES beside them. No end group written: not given here. d2Nal = N[C@H](Cc1ccc2ccccc2c1)C(=O)O; Inp = O=C(O)C1CCNCC1

Series [1] has as its system ACTH. Briefly: ACTH release from pituitary cells (RIA). The class given is cell-based, rat. The procedure: Dispersion: Adult female Sprague-Dawley (160-180 g., Charles River) rats were group-caged in a 12:12 light:dark cycle with food and water available ad libitum. Pituitaries from ten rats were removed, the posterior pituitary discarded and the anterior pituitary placed in Hanks' Balanced Salt Solution (HBSS: without calcium chloride, w/o magnesium chloride, w/o magnesium sulfate; Gibco) containing 20 mM HEPES (Gibco) and 100 U/ml penicillin streptomycin (PS: JRH Biosciences). Under sterile conditions, pituitaries were rinsed twice then minced into small fragments with a razor blade. Fragments were resuspended in 5 ml of HBSS/HEPES containing 20 mg collagenase (Serva 17449) and […] of 1 mg/ml DNase (Sigma) for a 40 min. incubation in a 37° C. gyrotory water bath shaker (New Brunswick Scientific Model G76; setting 10). After the incubation, fragments were triturated to yield small clumps and single cells. The cells were centrifuged 1000× g for 5 min, resuspended, counted and plated at a final cell concentration of 100,000 cells/ml. Incubation media was DME low glucose media w/NaHCO3 (Gibco) containing 20 mM hepes, 100 U/ml PS and 10% FBS (Hyclone A-111-L). Cells were plated at 0.5 ml per well in 48 well plates (Falcon) and incubated at 37° C. in 5% C02 for three days. For challenges to determine release of other pituitary hormones cells were plated at 200,000 cells per ml with 2 ml per well of a Swell plate (Corning). Challenge: A (inip)bbFK-NH2 stock (or other GHRP) concentration of 1 mM was made in DMSO and diluted with warmed media approximately 30 min prior to use. The highest concentration of DMSO in media was 0.1%. […] STATISTICS: The mean for each group was determined and analyzed by one-way analysis of variance with a post-hoc Student-Newman-Keuls. […] The EC50 was calculated using a 4-parameter curve-fit program (Kaleidagraph). […] RIA of pituitary hormones: LH, FSH, TSH, and Prolactin were determined with commercially available kits from Amersham, and ACTH levels were determined by a RIA kit from ICN. […]

For series [2], the system named is growth hormone secretion. Briefly: GHRP induced growth hormone secretion, intravenous administration (Rat IV). The class given is in vivo. As to conditions: serum GH 10 min after injection; for RAT IV ED50: Table IV, iv injection; for Rat IV ED50: Table II, iv tail vein injection, anesthetized weanling female rats. A digest of the protocol: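 Female Sprague Dawley rats (24-30 days, 50-90 g) under intraperitoneal pentobarbitone received graded intravenous tail-vein peptide doses in pH 5.0 sodium acetate/mannitol buffer 20 min post-anaesthesia. Blood by cardiac puncture 10 min after dosing; serum GH measured by rat GH ELISA in duplicate.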

The target in series [3] is T1, rat pituitary cells (Rattus norvegicus, UniProt O08725). A digest of the protocol: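 Primary rat anterior pituitary cells, cultured three days in DME low glucose/10% FBS, were washed, pre-incubated twice for 15 min, then challenged 15 min with test compounds (DMSO ≤0.1%) at 37 °C. Released GH was measured by two-site ELISA; EC50 came from 4-parameter fits, mean of three to four independent determinations.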
T1 sequence (O08725 whole entry): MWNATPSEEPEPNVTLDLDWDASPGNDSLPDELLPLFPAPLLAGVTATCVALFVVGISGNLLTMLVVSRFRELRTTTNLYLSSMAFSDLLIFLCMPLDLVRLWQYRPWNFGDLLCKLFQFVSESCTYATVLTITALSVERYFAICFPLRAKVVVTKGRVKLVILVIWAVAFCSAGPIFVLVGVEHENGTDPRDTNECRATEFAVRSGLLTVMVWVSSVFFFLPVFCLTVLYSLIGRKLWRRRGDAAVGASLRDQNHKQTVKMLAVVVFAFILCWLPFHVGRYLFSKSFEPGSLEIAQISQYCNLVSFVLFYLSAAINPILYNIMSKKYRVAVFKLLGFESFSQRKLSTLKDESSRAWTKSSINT

The nature of series [4]: Combination GHRP and IGF-1 treatment of normal rats (7 days). The series is classed as in vivo, rat. As to conditions: for body weight gain (in words): 7 days, twice daily sc injections, normal adult female rats, GHRH 300, GHRPs 50, L-692,585 150 μg/dose. The method, then: The rats were weighed on the day of surgery and randomized into 12 groups of 5/group using a grouping program.
The GH secretagogues were given by sc. injection twice daily, each dose of 100 μl. […] Recombinant human IGF-1 (rhIGF-1) at 2.5 mg/ml in acetate buffer was loaded into osmotic minipumps (Alza, Palo Alto, model 2ML1, pump rate 10.16 μl/hr for 7 days, fill volume 2086 μl). Other pumps were filled with acetate buffer. […] The delivered dose of rhIGF-1 was therefore 610 μg/day.
The next day the osmotic pumps were inserted into rats. […] All rats not receiving rhIGF-1 containing pumps were implanted with pumps delivering the acetate buffer excipient. […] The treatment groups were;
The rats were sacrificed using carbon dioxide, bled from the heart and organs taken. Serum chemistries were measured by standard automated procedures.

Series [5] concerns the target T1, rat pituitary cells. Briefly: Rat “pit” cell challenges: combinations with GHRP-6/GHRH, desensitization, somatostatin suppression, GHRP antagonist. The series is classed as cell-based.
Procedure: Dispersion: Adult female Sprague-Dawley (160-180 g., Charles River) rats were group-caged in a 12:12 light:dark cycle with food and water available ad libitum. Pituitaries from ten rats were removed, the posterior pituitary discarded and the anterior pituitary placed in Hanks' Balanced Salt Solution (HBSS: without calcium chloride, w/o magnesium chloride, w/o magnesium sulfate; Gibco) containing 20 mM HEPES (Gibco) and 100 U/ml penicillin streptomycin (PS: JRH Biosciences). Under sterile conditions, pituitaries were rinsed twice then minced into small fragments with a razor blade. Fragments were resuspended in 5 ml of HBSS/HEPES containing 20 mg collagenase (Serva 17449) and 200 ml of 1 mg/ml DNase (Sigma) for a 40 min. incubation in a 37° C. gyrotory water bath shaker (New Brunswick Scientific Model G76; setting 10). After the incubation, fragments were triturated to yield small clumps and single cells. The cells were centrifuged 1000× g for 5 min, resuspended, counted and plated at a final cell concentration of 100,000 cells/ml. Incubation media was DME low glucose media w/NaHCO3 (Gibco) containing 20 mM hepes, 100 U/ml PS and 10% FBS (Hyclone A-111-L). Cells were plated at 0.5 ml per well in 48 well plates (Falcon) and incubated at 37° C. in 5% C02 for three days. […] The highest concentration of DMSO in media was 0.1%. Stock solutions (1 mM) of rat GHRH, somatostatin (Sigma) and GHRP antagonist HwkWfK were made fresh in media and diluted appropriately. The media used in all challenges and washing steps was DME low glucose with 20 mM Hepes, 100 U/ml PS, 10% FBS. Media was warmed to 37° C. and gassed by placing it into the incubator prior to challenge. On day three, the media was discarded and fresh media (approximately 1 ml) added for the first of three washes. After the last wash, the plate was placed back in the incubator for a 15 min pre-incubation. Then cells were washed 2× (with warmed and gassed media) and fresh 0.5 ml media were added for the second 15 min. pre-incubation. After the second pre-incubation cells were washed 2× as above and 0.5 ml of control and test solutions were added for a final 15 min incubation. After this incubation, the media were removed for subsequent GH ELISA. GH ELISA: A two-site ELISA was used to determine rat GH concentration in the media. Briefly, goat anti-rat GH antibody (lot#19164-20) was used to coat Nunc immunoplates overnight. After blocking and washing, standard (rat GH reference preparation: Parlow) and challenge media is diluted 1:20 prior to GH assay were added for a 1 hr room temperature incubation. STATISTICS: The mean for each group was determined and analyzed by one-way analysis of variance with a post-hoc Student-Newman-Keuls. Significance is defined as P<0.05. The EC50 was calculated using a 4-parameter curve-fit program (Kaleidagraph). Three to four independent EC50s were used to derive the mean and SEM.
Series [6] can be described thus: GHRP induced dose dependent weight gain in rats (sc minipump infusion, 14 days). The series is classed as in vivo, rat. The procedure:
Rat GHRH (1-43) was dissolved in the same buffer at 25 g/l.
The next day these osmotic pumps were inserted into rats.
Serum chemistries were measured by standard automated procedures.

The subject of series [7] is rat pituitary cell. The note with it: cited from earlier work.
The conditions of series [8]: oral; cited from earlier work.
A short description of series [9]: Combination GHRP and IGF-1 treatment of obese Zucker Diabetic Fatty (ZDF) rats. The series is classed as in vivo, rat. The note with it: for body weight gain: obese ZDF male rats, rhGH 500 μg/d. The method, then:
Ten lean ZDF rats served as an additional control group.
This GHRP was given by sc. injection twice daily, each dose of 100 μl therefore containing 50 μg/injection or 100 μg/day.
Recombinant human IGF-1 (rhIGF-1) at 13.8 mg/ml in acetate buffer was loaded into osmotic minipumps (Alza, Palo Alto, model 2ML4, pump rate 2.29 μl/hr for 28 days, fill volume 2064 μl). Other pumps were filled with acetate buffer. […] The delivered dose of rhIGF-1 was therefore 758 μg/day. Recombinant human growth hormone (rhGH, Lot R9092AX, Genentech Inc.) was diluted in sterile water to 2.5 g/l and a 100 μl injection given twice daily (250 μg/injection, or 500 μg/day).
The next day the osmotic pumps were inserted into rats. […] All rats not receiving rhIGF-1 containing pumps were implanted with pumps delivering the acetate buffer excipient.
On day 24 blood was withdrawn after a 4 hour fast and 1.5 U/kg of regular insulin was injected i.p. and a second blood sample taken 30 minutes later. The rats were then sacrificed using carbon dioxide, bled from the heart, and organs taken. Serum glucose was measured by standard automated procedures.
Data are presented as mean±standard error (SE) of the mean with 8 rats per group.

The mark [10] stands for this setting: read-out: PIT Cell EC50, Table IV, formula III compounds, GH release, 15 min incubation.
The mark [11] stands for this setting: high dose (inip) b b F K-NH2 100 μg/day, GHRH 600 μg/day, 14 d infusion.
[12] abbreviates: read-out: “Pit” Cell EC50, Table II, prior art compounds, GH release, 15 min incubation.

Regarding “CRF: corticotrophin releasing factor (SEEPPISLDLTFHLLREVLEMARAEQLAQQAHSNRKLMEII; ends and bridges not checked; UniProt P06850 154-194, looked up) [reference compound]”, in series [1], the “rise in ACTH levels” value is listed as 3 fold.
As usually defined, the EC50 is the concentration giving half of the maximal effect. For `CN(C(=O)[C@@H](Cc1ccc2ccccc2c1)NC(=O)C1CCNCC1)[C@H](Cc1ccc2ccccc2c1)C(=O)NCCCCN` [(inip) b nmb bam, (inip)-DβNal-(N-Me-DβNal)-[N-(4-aminobutyl)] amide], the “RAT IV ED50” value in [2] was found to be 1.67 µg. In addition, the EC50 in series [3] (setting [10]) stood at 0.3 nM. Besides, in series [4], the “body weight gain (in words)” value is on record as “significant body weight gain”.
With “GHRH: Rat GHRH (1-43), growth hormone releasing hormone, positive control (HADAIFTSSYRRILGQLYARKLLHEIMNRQQGERNQEQRSRFN; Somatoliberin; UniProt P09916 31-73, looked up) [reference compound]”, in series [5] (100 nM), the “GH response compared with control” value is recorded as “mild GH response”. Further, in series [6] (14 d infusion), the epiphyseal plate width result is “no statistically significant increase”; the “pituitary and kidney weight” value is “not affected”. In addition, in [6] (GHRH 600 μg/day, 14 d infusion), the “liver weight (in words)” value was “significantly increased”. Moreover, in series [6] (high dose 100 μg/day, GHRH 600 μg/day), the “heart weight compared to excipient” value is recorded as “increased”. In addition, in series [6] (setting [11]), the spleen weight came to 624 ± 23 mg and the thymus weight was found to be 575 ± 39 mg. For the same molecule, in series [6] (sc minipump 14 days, (inip) b b F K-NH2 4, 20, 100 μg/d, GHRH 600 μg/d, 90 day old female rats), the “body weight gain compared to excipient” value was “significant body weight and organ weight gain”. Besides, in series [4], the “body weight gain (in words)” value is “significant body weight gain”.
Regarding `NC(=O)[C@H](Cc1ccccc1)NC(=O)[C@@H](Cc1ccc2ccccc2c1)NC(=O)[C@@H](Cc1ccc2ccccc2c1)NC(=O)C1CCNCC1` [(inip) b b F amide, (inip)-DβNal-DβNal-Phe-amide] (H-[Inp][d2Nal][d2Nal]F-NH2), the “RAT IV ED50” value in [2] is 1.7 µg. Besides, the EC50 in series [3] (setting [10]) was 0.28 nM. The “body weight gain (in words)” value in series [4] was “significant body weight gain”. The weight gain in series [4] (in 7 days, 50 μg/dose twice daily sc) turned out to be 36 ± 8 g.
In the case of `C[C@@H](O)CNC(C)(C)CC(=O)N[C@@H]1CCc2ccccc2N(Cc2ccc(-c3ccccc3-c3nnn[nH]3)cc2)C1=O` [L-692,585, reference compound], the “potency in the rat pituitary cell assay” value in [7] is recorded as “slightly greater than GHRP-6”. For the same molecule, the “Rat IV ED50” value in [2] stood at 10 µg. Also, the EC50 in series [3] (setting [12]) came out at 10.6 nM. Besides, the “body weight gain (in words)” value in [4] is recorded as “no significant weight gain”.
`C[C@H](NC(=O)[C@@H](Cc1c[nH]c2ccccc12)NC(=O)[C@@H](N)Cc1c[nH]cn1)C(=O)N[C@@H](Cc1c[nH]c2ccccc12)C(=O)N[C@H](Cc1ccccc1)C(=O)N[C@@H](CCCCN)C(N)=O` [GHRP 6, His-D Trp-Ala-Trp-D Phe-Lys-NH2, reference compound] (H-H[dW]AW[dF]K-NH2): in [2], the “Rat IV ED50” value amounted to 1.0 µg. Moreover, in series [5] (100 nM), the “GH response compared with control” value is reported as “significantly greater than control” and the “increase in GH levels over control” value was 3 fold. Also, the “GH release in combination with GHRH” value in series [5] (GHRP 100 nM plus GHRH 10 or 100 nM) was “show synergy with 10 nM GHRH; also recorded: synergistic; also recorded: showed synergy with GHRH”. The EC50 in [3] (read-out: mean EC50, mean ± SE of independent EC50s) came out at 6.2 ± 1.5 nM. For the same molecule, the absorbed orally in series [8] is ~0.3%. For the same molecule, the “body weight gain (in words)” value in series [4] is “significant body weight gain”.
In the case of “rhIGF-1: Recombinant human insulin-like growth factor-1”, the body weight gain in series [9] (Day 2, GHRP 100 μg/d sc injection, rhIGF-1 758 μg/d pump) was found to be 21.5 ± 0.7 g. Besides, the body weight gain in [9] (day 24, GHRP 100 μg/d, rhIGF-1 758 μg/d) amounted to 232 ± 2 g. In series [9] (rat, in vivo), the blood glucose is on record as 1774 mg % and the serum insulin amounted to 8 ± 1 ng/mL.
On to `CC(C)(N)CC(=O)N[C@@H]1CCc2ccccc2N(Cc2ccc(-c3ccccc3-c3nnn[nH]3)cc2)C1=O` [L-692,429, reference compound], for which the “fold less potent than GHRP-6” value in series [7] is on record as “about 6 fold”. Also, the “Rat IV ED50” value in series [2] came to 100 µg. For the same molecule, the EC50 in series [3] (setting [12]) amounted to 26.2 nM.
